Here are results for 4 molecules from patent publication US9428510B2, “Derivatives of azaindazole or diazaindazole type for treating a cancer overexpressing Trk” (PIERRE FABRE MEDICAMENT, priority 2012, dated 2016).

For data set [1], the system named is KM-12 colon cancer cells. Description: Antiproliferative activity against human colon cancer cells (KM-12), ATPlite. It is filed as cell-based. Particulars: KM12, KM-12 cells, 72 hours, read-out: Cell proliferation inhibition (KM-12) IC50. How it is done: The antiproliferative activities of the compounds according to the invention were measured by the ATPlite technique (Perkin Elmer).
Adherent human colon cancer cells (KM-12 colon cancer cells are TrkA-dependent) are inoculated in 96-well plates (3500 cells/well) on day 0, at a concentration compatible with logarithmic growth for the 72 hours required for the evaluation of the compounds. All of the cells are treated on day 1 and then placed in an incubator at 37° C. under an atmosphere of 5% CO2. Cell viability is evaluated on day 4 by assaying released ATP, which is characteristic of viable cells. IC50s are determined by nonlinear regression on the basis of a sigmoidal dose/response relationship model, wherein the Hill coefficient is left variable, carried out on the GraphPad software package according to the algorithm provided.
(Cellular ATP, detected with luciferase, serves as a proxy for viable cell number.)

Data set [2] deals with KM-12 experimental tumor model. Nature of the data set: In vivo antitumor activity against the KM-12 experimental tumor model. Particulars: oral route, (q1d6)x2 weeks schedule. The source says: This activity is noticeable since colon cancer is overall poor responsive to chemotherapy.
The target of data set [3] is T1, TrkA (Homo sapiens, UniProt P04629).
T1 construct: purchased Millipore or Kinome Scan (DiscoverX)
Nature of the data set: Test for measuring inhibition of TrkA kinase (Millipore or Kinome Scan, manufacturer's protocols). Format: biochemical. As to conditions: 10 nM compound. An excerpt:
(§1) These kinases are produced by Millipore or Kinome Scan (DiscoverX) and are screened according to the manufacturer's protocols.

Data set [4] concerns the target T2, TrkB (Homo sapiens, UniProt Q16620).
T2 construct: purchased Millipore or Kinome Scan (DiscoverX)
Nature of the data set: Test for measuring inhibition of TrkB kinase (Millipore or Kinome Scan, manufacturer's protocols). Format: biochemical. Particulars: 10 nM compound.
Excerpt: as §1

Data set [5] addresses T3, TrkB (or NTRK2) (Homo sapiens, UniProt Q16620).
T3 construct: using the soluble intracellular segment of theses receptors, containing the kinase activity; purchased Invitrogen
Description: In vitro kinase glo plus-based kinase assay, TrkB. Format: biochemical. Particulars: N=36, 40 μM ATP. How it is done: An in vitro kinase glo plus-based kinase assay (Promega) was developed in a 96 wells assay plate format to assess the inhibiting properties of compounds on tropomyosin related kinases (Trk) receptors, using the soluble intracellular segment of theses receptors, containing the kinase activity (TrkA (or NTRK1; 400 ng/well; […] Invitrogen)). […] Plates were removed from incubator, and 50 μl of kinase-glo plus was added to each well, followed by a 10 minute incubation at room temperature. The luciferase-induced luminescence, which is proportional to the ATP remaining in the well, was measured on a luminometer. Controls on each plates included wells with the kinase alone (maximal ATP consumption, or 0% inhibition), wells without the kinase (maximal ATP signal or 100% inhibition), and wells with 20 μM staurosporine (positive control of inhibition). […] N=42; […]

T3 sequence (Q16620 455-822 limits assumed): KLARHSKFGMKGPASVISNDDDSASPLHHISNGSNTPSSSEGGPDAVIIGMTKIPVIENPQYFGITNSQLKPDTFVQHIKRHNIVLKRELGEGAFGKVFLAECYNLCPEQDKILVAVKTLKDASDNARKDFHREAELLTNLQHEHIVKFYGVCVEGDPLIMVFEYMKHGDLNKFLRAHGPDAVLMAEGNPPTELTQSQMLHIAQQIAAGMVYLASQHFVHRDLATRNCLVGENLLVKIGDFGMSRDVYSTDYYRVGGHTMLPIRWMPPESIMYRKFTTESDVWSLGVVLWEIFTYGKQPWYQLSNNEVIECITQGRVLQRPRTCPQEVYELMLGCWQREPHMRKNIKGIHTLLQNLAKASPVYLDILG
T1 sequence (P04629 33-796): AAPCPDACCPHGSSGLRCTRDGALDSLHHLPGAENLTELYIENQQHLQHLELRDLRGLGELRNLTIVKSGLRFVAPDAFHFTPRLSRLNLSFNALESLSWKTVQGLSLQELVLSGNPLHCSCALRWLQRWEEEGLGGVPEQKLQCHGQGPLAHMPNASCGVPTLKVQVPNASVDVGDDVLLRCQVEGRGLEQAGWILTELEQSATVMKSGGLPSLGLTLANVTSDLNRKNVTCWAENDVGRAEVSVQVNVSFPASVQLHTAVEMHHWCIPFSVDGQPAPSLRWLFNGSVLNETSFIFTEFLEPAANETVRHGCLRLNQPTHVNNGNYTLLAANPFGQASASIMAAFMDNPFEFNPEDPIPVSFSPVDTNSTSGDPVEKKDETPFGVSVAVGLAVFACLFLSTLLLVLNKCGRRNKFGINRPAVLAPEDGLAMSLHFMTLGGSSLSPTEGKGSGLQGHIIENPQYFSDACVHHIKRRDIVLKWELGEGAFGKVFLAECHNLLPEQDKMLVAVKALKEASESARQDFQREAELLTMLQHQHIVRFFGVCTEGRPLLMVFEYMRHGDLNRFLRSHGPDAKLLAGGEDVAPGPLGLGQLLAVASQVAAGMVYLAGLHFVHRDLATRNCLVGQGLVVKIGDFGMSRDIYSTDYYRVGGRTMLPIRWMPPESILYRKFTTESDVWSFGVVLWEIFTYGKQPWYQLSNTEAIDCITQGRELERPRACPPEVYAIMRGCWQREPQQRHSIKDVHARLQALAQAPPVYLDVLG
T2 sequence (Q16620 32-822): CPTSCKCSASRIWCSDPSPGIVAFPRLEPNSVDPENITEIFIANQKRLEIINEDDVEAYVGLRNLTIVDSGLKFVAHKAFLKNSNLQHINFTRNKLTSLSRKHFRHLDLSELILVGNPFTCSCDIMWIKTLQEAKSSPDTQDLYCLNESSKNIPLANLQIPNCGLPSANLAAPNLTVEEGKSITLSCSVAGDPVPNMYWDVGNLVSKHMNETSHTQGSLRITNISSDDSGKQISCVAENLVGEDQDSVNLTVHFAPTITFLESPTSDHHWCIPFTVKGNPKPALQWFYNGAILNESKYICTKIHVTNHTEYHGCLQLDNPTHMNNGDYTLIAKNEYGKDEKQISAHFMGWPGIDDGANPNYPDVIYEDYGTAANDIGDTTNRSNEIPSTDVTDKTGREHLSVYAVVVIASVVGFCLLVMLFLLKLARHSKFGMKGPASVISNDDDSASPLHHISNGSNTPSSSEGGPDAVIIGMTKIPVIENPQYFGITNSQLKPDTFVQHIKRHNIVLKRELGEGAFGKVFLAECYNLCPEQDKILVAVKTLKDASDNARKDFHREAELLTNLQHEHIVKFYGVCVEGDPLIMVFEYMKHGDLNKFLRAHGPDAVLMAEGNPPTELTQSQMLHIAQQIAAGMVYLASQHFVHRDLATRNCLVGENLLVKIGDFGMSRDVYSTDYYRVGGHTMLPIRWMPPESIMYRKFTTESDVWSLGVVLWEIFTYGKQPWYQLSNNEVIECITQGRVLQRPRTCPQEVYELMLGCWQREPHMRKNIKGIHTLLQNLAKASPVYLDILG

Consider `CN1CCN(c2ccc(C(=O)Nc3n[nH]c4ncc(Sc5cc(F)cc(F)c5)cc34)c(NC3CCOCC3)c2)CC1` [Example 30, N-(5-(3,5-difluorophenylthio)-1-H-pyrazolo[3,4-b]pyridine-3-yl)-4-(4-methylpiperazine-1-yl)-2-(tetrahydro-2H-pyran-4-ylamino)benzamide], for which the IC50 in data set [1] was found to be 36 nM. Also, the adverse effects result in data set [2] (120 and 240 mg/kg) is reported as “without any adverse effects”. The tumor growth inhibition result in data set [2] (recorded at 120 and 240 mg/kg, lasts one week after the end of treatment) was “up to 96%”.
On to `CN1CCN(c2ccc(C(=O)Nc3n[nH]c4nc(N)c(Sc5cc(F)cc(F)c5)cc34)c(NC3CCOCC3)c2)CC1` [Example 14-11, N-(6-amino-5-(3,5-difluorophenylthio)-1H-pyrazolo[3,4-b]pyridin-3-yl)-4-(4-methylpiperazin-1-yl)-2-(tetrahydro-2H-pyran-4-ylamino)benzamide], for which the IC50 in data set [1] came out at 2.2 nM.
Turning to `CN1CCN(c2ccc(C(=O)Nc3n[nH]c4ncc(Cc5cc(F)cc(F)c5)cc34)c(NC3CCOCC3)c2)CC1` [Example 30-9, N-(5-(3,5-difluorobenzyl)-1H-pyrazolo[3,4-b]pyridin-3-yl)-4-(4-methylpiperazin-1-yl)-2-(tetrahydro-2H-pyran-4-ylamino)benzamidc], the “Enzymatic inhibition at 10 nM (%) TrkA” value in data set [3] amounted to 55%. In addition, the “Enzymatic inhibition at 10 nM (%) TrkB” value in data set [4] is recorded as 98%.
On to `COC(=O)[C@@]1(O)C[C@H]2O[C@]1(C)n1c3ccccc3c3c4c(c5c6ccccc6n2c5c31)C(=O)NC4` [Example K252a, K252a], for which the IC50 in data set [5] amounted to 74 nM. Moreover, the “pIC50 on TrkB” value in data set [5] (mean±SD) is given as 7.16±0.18.
